# Results as given in patent publication US10842772B1, “Cannabis-based bioactive formulations and methods for use thereof” (priority 2016, dated 2020).
# Where a name gives a salt, the structure may show the parent alone.
# Columns and labels:
# CB1 and CB2 receptors = conditions: cited from earlier work
# GPR55 = GPR55 (Homo sapiens, UniProt Q9Y2T6); conditions: putative new cannabinoid receptor; cited from earlier work
# 5-HT1A receptor = target: T1, 5-HT1A receptor (Homo sapiens, UniProt P08908); conditions: cited from earlier work
# T1 sequence (P08908 1-422): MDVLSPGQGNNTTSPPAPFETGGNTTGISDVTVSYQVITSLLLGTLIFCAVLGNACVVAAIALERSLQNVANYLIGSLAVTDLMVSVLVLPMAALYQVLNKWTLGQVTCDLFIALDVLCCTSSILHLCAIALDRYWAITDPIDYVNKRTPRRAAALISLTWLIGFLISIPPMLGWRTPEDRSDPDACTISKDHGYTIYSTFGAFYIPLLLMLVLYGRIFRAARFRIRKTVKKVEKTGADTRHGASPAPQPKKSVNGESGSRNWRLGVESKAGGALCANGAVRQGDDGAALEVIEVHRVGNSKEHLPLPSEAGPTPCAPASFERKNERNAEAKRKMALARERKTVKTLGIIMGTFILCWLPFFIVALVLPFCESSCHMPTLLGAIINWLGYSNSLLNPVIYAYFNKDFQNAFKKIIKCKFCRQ
# [1] = system: Patient 1 (anxiety, depression, OCD, ADHD-related symptoms); experiment: Example 2: treatment of Patient 1 with THC (vaporized, then edible); type: in vivo, human
# Procedure: Following cessation of efficacy of Zoloft, Patient 1 obtained a prescription for medical marijuana. Patient 1 began by vaporizing marijuana buds and later vaporizing THC wax and oil concentrates.
# Patient 1 began consuming THC in edible form at doses ranging from 10-35 mg every 4-6 hours. Initially, Patient 1 consumed 10-20 mg for approximately 1-2 months, and then increased the dose to 30-35 mg. […] Patient 1 used orally consumed THC as a medicament for at least 9 months during which time they observed and recorded the changes in their mood, movements, cognition and behavior while practicing law working, raising children, and otherwise functioning in their daily life. […] Patient 1 continued to use the SSRI Zoloft during approximately the first 2 months of this 9-month period, but thereafter discontinued the use of Zoloft.
# Patient 1 reports that symptom relief seems tied to THC's slowing of their perception of time, which results in cascading (positive) effects on their mood, movements, cognition and behavior.
# [2] = system: patients experiencing ADHD-related symptoms or ASD-related symptoms; experiment: Example 3: group study, THC versus placebo; type: in vivo, human; conditions: THC or Marinol versus placebo; re-evaluation after 2-3 weeks adjustment
# Procedure: In patients experiencing ADHD-related symptoms or ASD-related symptoms, obtain baseline measures (using, reports, observations or tests described above) of the symptoms and deficits commonly associated with the conditions. Administer THC, or a synthetic substitute such as Marinol® at a specific dose, to half of the group and administer a placebo to the remainder of the participants. The group that is administered THC should be allowed at least 2-3 weeks to acclimate to THC. After the several week adjustment period, all patients should be re-evaluated using the same or similar tests, observations and reports upon which initial measures of symptoms and deficits were made.
# CB2 receptor = CB2 receptor (Homo sapiens, UniProt P34972); conditions: cited from earlier work
# [3] = cited from earlier work
# [4] = system: Patient 1 (anxiety, depression, OCD, substance abuse, ADHD); experiment: Example 1: treatment of Patient 1 with Zoloft; type: in vivo, human
# Procedure: Patient 1 was also a regular user of alcohol and a recreational user of cocaine. Patient 1 was prescribed selective serotonin reuptake inhibitor (SSRI) Zoloft, at 25 mg with doses increasing up to 200 mg over the course of approximately 6-8 months. The dose of Zoloft/sertraline used was 25-200 mg.
# [5] = THC in edible form 10-35 mg every 4-6 hours
# Sequence of GPR55 (Q9Y2T6 whole entry, species assumed): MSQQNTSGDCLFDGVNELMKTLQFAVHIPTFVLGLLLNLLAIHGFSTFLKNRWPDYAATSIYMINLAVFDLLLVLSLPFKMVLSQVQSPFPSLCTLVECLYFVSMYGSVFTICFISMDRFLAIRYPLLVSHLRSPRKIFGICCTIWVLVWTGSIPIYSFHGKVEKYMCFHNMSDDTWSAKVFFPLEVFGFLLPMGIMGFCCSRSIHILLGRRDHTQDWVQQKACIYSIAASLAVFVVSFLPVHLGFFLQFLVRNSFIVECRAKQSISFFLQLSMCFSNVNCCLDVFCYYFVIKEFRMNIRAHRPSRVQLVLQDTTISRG
# Sequence of CB2 receptor (P34972 whole entry): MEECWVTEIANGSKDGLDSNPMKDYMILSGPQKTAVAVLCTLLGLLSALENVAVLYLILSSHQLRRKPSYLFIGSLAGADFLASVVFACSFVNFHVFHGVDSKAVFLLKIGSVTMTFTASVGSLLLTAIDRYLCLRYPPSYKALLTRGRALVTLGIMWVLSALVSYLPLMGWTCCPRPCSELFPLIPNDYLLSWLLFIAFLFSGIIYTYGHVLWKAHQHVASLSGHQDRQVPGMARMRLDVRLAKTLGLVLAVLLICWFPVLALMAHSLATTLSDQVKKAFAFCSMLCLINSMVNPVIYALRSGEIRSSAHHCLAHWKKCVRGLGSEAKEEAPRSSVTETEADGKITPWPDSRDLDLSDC
structure (smiles),measurement,setting,value
"C=C(C)[C@@H]1CCC(C)=C[C@H]1c1c(O)cc(CCCCC)cc1O [CBD, cannabidiol]",affinity for CB1 and CB2 receptors,CB1 and CB2 receptors,little affinity
same,relative affinity for CB1 versus CB2 receptor,CB1 and CB2 receptors,greater affinity for the CB2 receptor
same,activity at GPR55,GPR55,antagonist
same,activity at 5-HT1A receptor,5-HT1A receptor,agonist
"CCCCCc1cc(O)c2c(c1)OC(C)(C)[C@@H]1CCC(C)=C[C@@H]21 [THC, (−)-(6aR,10aR)-6,6,9-trimethyl-3-pentyl-6a,7,8,10a-tetrahydro-6H-benzo[c] chromen-1-ol]",OCD and ADHD-related symptoms,[1]; [5],elimination
same,"ability to focus and concentrate on reading, writing, and interpersonal interactions",[1]; [5],increased ability to focus and concentrate
same,"anxiety, depression",[1]; [5],significant reduction
same,perception of time,[1]; [5],slowed perception of time
same,side effects,"[1]; edible THC, after initial adjustment period of approximately 2 weeks",No significant side effects
same,ability to read body language and facial expressions,[1]; orally-consumed THC,increase in their ability to read body language and facial expressions
same,alcohol and cocaine use,[1]; orally-consumed THC,rarely consumed alcohol and stopped using cocaine
same,"coordination and balance, fine motor skills",[1]; orally-consumed THC,improvements in coordination and balance
same,interpersonal relationships at home and in the workplace,[1]; orally-consumed THC,improvement in interpersonal relationships
same,propensity to interrupt while orally communicating,[1]; orally-consumed THC,reduced propensity to interrupt
same,sensitivity to peripheral noise and other distractions,[1]; orally-consumed THC,reduction in sensitivity
same,"visualizing images described in writings, sense of direction",[1]; orally-consumed THC,increased ability to visualize images described in writings and an improved sense of direction
same,symptoms and deficits associated with ASD and ADHD,[2],reduce or eliminate
same,relative affinity for CB1 versus CB2 receptor,CB1 and CB2 receptors,approximately equal affinity
same,activity at CB2 receptor,CB2 receptor,partial agonist
same,peak plasma time,[3]; Absorption,0.5 to 4 h
same,protein bound,[3]; Distribution,90-99%
same,excretion: feces,[3]; Elimination,50%
same,excretion: urine,[3]; Elimination,15%
same,"half-life, parent drug",[3]; Elimination,25 to 36 h
same,renal clearance,[3]; Elimination,18 to 20 mL/min
same,total body clearance,[3]; Elimination,0.2 L/kg/h
same,Metabolism,[3]; in vivo,extensive first-pass hepatic metabolism
"CN[C@H]1CC[C@@H](c2ccc(Cl)c(Cl)c2)c2ccccc21 [Zoloft, sertraline HCl]","treating anxiety, depression, OCD, substance abuse and ADHD","[4]; 25 mg increasing up to 200 mg over 6-8 months, at initial dose and each incremental increase",initially effective
same,persistence of effects,"[4]; 25-200 mg, after dosage increases",effects wore off at varying intervals
